Assay results from US20240425589A1, “CYTOTOXICITY-INDUCING THERAPEUTIC AGENT FOR USE IN TREATMENT OF CANCER” (CHUGAI SEIYAKU KABUSHIKI KAISHA, priority 2021, published 2024).

Key:
[1] = tested on: CLDN6 expression in NIH:OVCAR-3, COV413A, COV413B, COV362; experiment: CLDN6 expression by FACS after TGF-β1; assay type: cell-based, human; conditions: TGF-β1 10 ng/mL, four days, vs untreated
Protocol: Next, analyses were performed to determine whether TGF-β1 induces CLDN6 expression in other ovarian cancer cell lines. In addition to NIH:OVCAR-3 cells, COV413A cells (ECACC), COV413B (ECACC), and COV362 (ECACC) were seeded on culture plates, and TGF-β1 was added at 10 ng/mL. Four days later, cells were recovered, and CLDN6 expression was analyzed by FACS analysis.
In the FACS analysis, cells were detached from the culturing flask to produce a cell suspension, these cells were stained using an anti-CLDN6 antibody (CS4135 mIgG1: the heavy-chain and light-chain amino acid sequences are shown in SEQ ID NOs: 210 and 211, respectively, and the heavy-chain and light-chain nucleotide sequences are shown in SEQ ID NOs: 212 and 213, respectively) labeled with Alexa Flour 488 (Alexa Fluor 488 antibody labeling kit, ThermoFisher Scientific), and the amount of CLDN6 expression was analyzed using a flow cytometer (FACSlyric, BD Biosciences). The CS4135 mIgG1 antibody is a chimeric antibody produced by linking the Fc region of a mouse IgG1 to the Fab of the CS4135 antibody.

[2] = tested on: CLDN6 expression in NIH:OVCAR-3; experiment: CLDN6 expression by quantitative PCR after TGF-β1; assay type: cell-based, human; conditions: TGF-β1 10 ng/ml, 5 days, vs untreated
Protocol: Therefore, it was speculated that TGF-β1 induced by treatment with an anticancer agent may affect CLDN6 expression. Accordingly, analyzes were performed to determine whether […] induces CLDN6 expression in the human ovarian cancer cell line (NIH:OVCAR-3, ATCC). Regarding the NIH:OVCAR-3 cells seeded on culture plates, RNAs were purified (RNeasy Mini Kit, QIAGEN) from untreated cells or from cells collected 5 days after addition of TGF-β1 (R & D Systems, 10 ng/ml), and then cDNA synthesis (Superscript IV VILO Master Mix, ThermoFisher) was performed. By using the cDNAs as templates, real-time PCR was performed using CLDN6-specific primers (Power SYBR (registered trademark) Green Master Mix, ThermoFisher) to analyze CLDN6 expression (QuantStudio 12K Flex Real-Time PCR System, ThermoFisher).
The same primers as those in the above-mentioned Example 21.1 were used as the primers for human CLDN6 and for the primers for human GAPDH used as the internal control.

With “TGF-β1: TGF-β1 (R & D Systems) added to cells at 10 ng/ml” the CLDN6 expression [1] was “increased CLDN6 expression” and the CLDN6 expression [2] was “Increase in CLDN6 expression was observed”.
